# “Also recorded” adds a separate entry of the source.
# How the values were obtained:
# control mice [1] = assay: Radiant tail flick antinociception, control (not pretreated) mice; type: in vivo; details: controls; for ED50 (CI) i.t. / ED50 (CI) i.c.v.: tail flick
# Procedure: (§1) Compounds were dissolved in 10% DMSO and then diluted to less than 1% DMSO in the test solutions. […] Compounds were administered in a 5-μl volume in conscious mice, either i.c.v. (Haley T J & McCormick W G, Br J Pharmacol Chemother, 1957, 12(1), 12-15) or i.t. (Hylden J L K & Wilcox G L, Eur. J. Pharmacol., 1980, 67(2-3), 313-316). Peak times were determined by comparing the percent maximal possible effect (% MPE) at 5, 10, 20 and 60 minutes after injection.
# (§2) The tail flick assay is used first to test for antinociception as described by D'Amour and Smith (D'AMOUR FE & SMITH DL (1941) J. Pharmacol. Exp. Ther. 72(1):74-79) and modified by Dewey et al. (Dewey W L, Harris L S, Howes J F, & Nuite JA (1970) J. Pharmacol. Exp. Ther. 175(2):435-442). For the measurement of the tail-flick latency, mice are wrapped in a light cloth and held gently in one hand with the tail positioned in the apparatus (Tail Flick Analgesia Meter, Columbus Instruments, Columbus, Ohio) for radiant heat stimulus. The tail-flick response is elicited by applying radiant heat to the dorsal side of the tail. The intensity of the heat is set so that the mouse flicks its tail within 2 to 3 seconds. The test latency is measured before drug treatment (control) and again after the drug treatment (test) at the peak time of the compound; a 10 second maximum cut-off time is used to prevent damage to the tail. Antinociception is quantified according to the Harris L S & Pierson A K, J. Pharmacol. Exp. Ther., 1964, 143(2):141-148, as the percent maximal possible effect (% MPE), which is calculated as: % MPE=(Test−Control/10−Control)×100.
# (§3) At least three groups of four to ten mice are used for each dose response curve. ED50 values with 95% confidence intervals (C.I.) are computed with GraphPad Prism 4 by using nonlinear regression methods.
# LPS pretreated mice [2] = assay: Radiant tail flick antinociception, LPS pretreated mice; type: in vivo; details: for ED50 (CI) i.c.v. / ED50 (CI) i.t.: LPS pretreated (1 mg/kg 24 hours i.p.); for dose range of antinociception / % MPE: LPS pretreated
# Procedure: as §1
# The first group mice were pretreated with lipopolysaccaride (LPS, 1 mg/kg, i.p. from Escherichia coli 0111:B4; Sigma-Aldrich, St. Louis, Mo.) for 24 hours before testing for antinociception of compounds 2-6 (Seo Y-J, et al., Pharmacol., Biochem. Behav., 2008, 91, 121-127). This group was compared to a group without pretreatment.
# as §2, §3
# LPS pretreated mice [3] = assay: Acute (24 hour) tolerance, tail flick, LPS pretreated mice; type: in vivo; details: 24 hours
# Procedure: (§4) Acute tolerance utilizing the radiant tail flick assay was measured by comparing the ED80-90 dose on day 1 to the same dose measured 24 hours later on the same mouse. For the LPS pretreated mice, no additional LPS was given to the mice for the acute tolerance test. […] However, the effect was less robust 72 hours after the initial LPS injection. Thus confirming that the acute tolerance test was accurate for the LPS pretreated mice.
# control mice [4] = assay: Acute (24 hour) tolerance, tail flick, control mice; type: in vivo; details: controls
# Procedure: as §4
# C3H/HeNCrlVr mice = details: intrathecal; spontaneous pain, mechanical allodynia, thermal hyperalgesia; cited from earlier work
# live mice = assay: Respiratory depression (Mouse Ox O2 saturation); type: in vivo; details: i.t.; dose 100 times the ED90
# Procedure: Respiratory depression was measured in live mice using the Mouse Ox (small animal Oximeter from STARR Life Sciences Corp, Oakmont, Pa.). CollarClip™—(Un-Anesthetized Neck Sensor) for mice was used as the site for measuring the data. Day one of each experiment involved training the animals using a disposable CollarClip™. The collar was left on for approximately one hour. […] Mice were monitored for a 60-minute period, with measurements 10-20-30 and 60 minutes.
# Respiratory depression was measured in live mice using the Mouse Ox (small animal Oximeter from STARR Life Sciences Corp, Oakmont, Pa.). CollarClip™ (Un-Anesthetized Neck Sensor) for mice was used as the site for measuring the data.
# Day one of each experiment involved training the animals using a disposable CollarClip™. The collar was left on for approximately one hour.
# Mice were monitored for a 60-minute period, with measurements 10-20-30 and 60 minutes.
# [5] = tested on: C3H mice with bone cancer; assay: von Frey mechanical hyperalgesia, bone cancer (fibrosarcoma) mice; type: in vivo; details: bone cancer, 250 pmol/mouse, day 3
# Procedure: The mouse hind paw model of bone cancer was the third model of pain (Wacnik P W, et al., Pain Research & Management, 2000, 16, 615-637; and Wacnik P W, et al., J Neurosci, 2001, 21(23), 9355-9366). Cell Culture: National Collection of Type Cultures (NCTC) clone 2472 fibrosarcoma cells, originally derived from a connective tissue tumor in a C3H mouse, were obtained from the American Type Cell Culture Collection (Rockville, Md.). Cells were grown and maintained in accordance with standard cell culturing techniques. NCTC cells were grown to 80-90% confluence in 75 cm^2 flasks (Corning, Lowell, Mass.) in Dulbecco's Modification of Eagles Medium (Invitrogen, Carlsbad, Calif.) fortified with 10% Horse Serum and sodium bicarbonate. Cell cultures were housed in a water-jacketed incubator with 5% carbon dioxide at 37° C.
# Cells were prepared for implantation by first pouring off the culture medium and washing with phosphate-buffered saline (PBS). Trypsin was added to flask and placed in incubator for 3 minutes. Upon detachment, cells were suspended in an ample amount of culture medium to terminate enzymatic activity and centrifuged for 10 min at 1000 g. Fibrosarcoma cells were re-suspended in a known amount of PBS for counting, quantified on a hemacytometer, pelleted and re-suspended in PBS. Fibrosarcoma cells were again re-suspended to a final concentration of 2×10^5 cells in 20 μl. Initially, animals were anesthetized in a plexi-glass chamber using 3% isoflurane in 3 L/min oxygen. Once each mouse was completely anesthetized, a maintenance rate of 2% isoflurane in 1.5 L/min oxygen was maintained during the short implantation procedure. Tumor cells were manually injected by boring into the calcaneus bone using a 29½ gauge needle connected to a sterile 0.3 ml insulin syringe as previously described (19). Following injection, mice were allowed to recover in cages on a heating pad. Animals showing any signs of dysfunction (e.g. problems with ambulation, lethargy or excessive bleeding) or distress where euthanized according to CO2 guidelines.
# C3H mice were was placed under a clean glass cup on a wire mesh grid and allowed to acclimate for thirty minutes. Mechanical hypersensitivity was tested using a von Frey filament #3.61 (which produces a force of […]) to the plantar surface of both the left and right hind paw with enough force to cause it to bow slightly. Starting with the right hind paw, the number of positive responses out of a total of 10 applications was recorded followed by the left hind paw. Positive response was indicated by a sharp withdrawal or flinching behavior of the paw. Baseline von Frey measurements were obtained prior to treatment with CFA, tumor and saline controls. […] Subsequent measurements were taken at various time points after intrathecal (i.t.) injection of test compounds on days 3, 7, 10, 14, 17, and 21. % MPE was calculated ((Time-point value−Day# baseline)/(Day 0 baseline−day# baseline))*100 (Smeester B A, Al-Gizawiy M, & Beitz A J (2012) Evidence-Based Complementary and Alternative Medicine 2012:16). Animals with saline injection served as controls for tumor cell implantation and tumor-induced nociception. Behavioral assessments were conducted during the light cycle at approximately the same time each day. The investigator performing the von Frey testing was blinded to the animal and compound injected.
# A well-established rodent hind paw model of bone cancer pain (Wacnik P W, et al., J Neurosci. 2001, 21(23), 9355-66) was to examine the effects of representative bivalent ligands on tumor-induced nociception. The inbred C3H/He line is syngeneic to the fibrosarcoma cells used in these experiments and allows these cells to grow tumors without rejection. Male C3H mice were used for all experiments. Animals were maintained on a 12 hour light/dark cycle with food and water ad libitum.
# Cells were prepared for implantation by first pouring off the culture medium and washing with phosphate-buffered saline (PBS). […]
Structure (SMILES),ED50 (CI) i.t. (control mice [1]; i.t.) [pmol/mouse],ED50 (CI) i.c.v. (LPS pretreated mice [2]; i.c.v.) [pmol/mouse],dose range of antinociception (LPS pretreated mice [2]; i.t.),Tolerance (LPS pretreated mice [3]; i.t.),Tolerance (control mice [4]; i.t.),ED50 (CI) i.c.v. (control mice [1]; i.c.v.) [pmol/mouse],ED50 (CI) i.t. (LPS pretreated mice [2]; i.t.) [pmol/mouse],Tolerance (control mice [4]; i.c.v.),further results
"Cc1cccc(C#Cc2cccc(OCCNC(=O)COCC(=O)NCCCCCCCNC(=O)COCC(=O)N[C@H]3CC[C@@]4(O)C5Cc6ccc(O)c7c6[C@@]4(CCN5C)[C@H]3O7)c2)n1 [Compound 4d, N-((4aS,7S,7aR,12bS)-4a,9-dihydroxy-3-methyl-2,3,4,4a,5,6,7,7a-octahydro-1H-4,12-methanobenzofuro[3,2-e]isoquinolin-7-yl)-2-((1-(3-((6-methylpyridin-2-yl)ethynyl)phenoxy)-4,8,18-trioxo-6-oxa-3,9,17-triazanonadecan-19-yl)oxy)acetamide]",132.7,411.9,nmol range,devoid of tolerance; also recorded: No tolerance,No tolerance,,,,"% MPE (control mice [1]; i.c.v., 1000 pmol): 53.76 ± 16.36% MPE"
"Cc1cccc(C#Cc2cccc(OCCNC(=O)COCC(=O)NCCCNC(=O)COCC(=O)N[C@H]3CC[C@@]4(O)C5Cc6ccc(O)c7c6[C@@]4(CCN5C)[C@H]3O7)c2)n1 [Compound 4b, N-((4aS,7S,7aR,12bS)-4a,9-dihydroxy-3-methyl-2,3,4,4a,5,6,7,7a-octahydro-1H-4,12-methanobenzofuro[3,2-e]isoquinolin-7-yl)-2-((1-(3-((6-methylpyridin-2-yl)ethynyl)phenoxy)-4,8,14-trioxo-6-oxa-3,9,13-triazapentadecan-15-yl)oxy)acetamide]",36.08,64.36,nmol range,devoid of tolerance; also recorded: No Tolerance,No Tolerance,113.3,10.08,No Tolerance,Tolerance (LPS pretreated mice [3]; i.c.v.): No Tolerance
Cc1cccc(C#Cc2ccccc2)n1 [MPEP],,,,,,,,,effect on bone cancer-evoked pain (C3H/HeNCrlVr mice): attenuated bone cancer-evoked spontaneous pain
"CN1CC[C@]23c4c5ccc(O)c4O[C@H]2[C@@H](O)C=C[C@H]3[C@H]1C5 [Morphine, reference compound]",,,,,,,,,% of mice with O2 Saturation less than 90% (live mice): 50%
"CNC(=O)COCC(=O)NCCCNC(=O)COCC(=O)NCCOc1cccc(C#Cc2cccc(C)n2)c1 [Compound 6, N-methyl-2-(1-(3-((6-methylpyridin-2-yl)ethynyl)phenoxy)-4,8,14-trioxo-6-oxa-3,9,13-triazapentadecan-15-yloxy)acetamide]",,,,No tolerance,,,548.7,,"% MPE [5]: 17.59±18.24 % MPE; % MPE (control mice [1]; i.c.v., 250 pmol/mouse): 24.87 ± 11.77% MPE; % MPE (control mice [1]; i.t., 2500 pmol/mouse): 26.13 ± 7.27% MPE; % MPE (LPS pretreated mice [2]; i.c.v., 2500 pmol/mouse): 38.83 ± 11.59% MPE"
"Cc1cccc(C#Cc2cccc(OCCNC(=O)COCC(=O)N[C@H]3CC[C@@]4(O)C5Cc6ccc(O)c7c6[C@@]4(CCN5C)[C@H]3O7)c2)n1 [Compound 3, N-((4aS,7S,7aR,12bS)-4a,9-dihydroxy-3-methyl-2,3,4,4a,5,6,7,7a-octahydro-1H-4,12-methanobenzofuro[3,2-e]isoquinolin-7-yl)-2-(2-((2-(3-((6-methylpyridin-2-yl)ethynyl)phenoxy)ethyl)amino)-2-oxoethoxy)acetamide]",114.7,,nmol range,Tolerance was also observed; also recorded: exhibited tolerance,No Tolerance,529.6,8.17,Tolerance,"% MPE (LPS pretreated mice [2]; i.c.v., 500 pmol/mouse): 56.86 ± 8.95% MPE"
"Cc1cccc(C#Cc2cccc(OCCNC(=O)COCC(=O)NCCNC(=O)COCC(=O)N[C@H]3CC[C@@]4(O)C5Cc6ccc(O)c7c6[C@@]4(CCN5C)[C@H]3O7)c2)n1 [Compound 4a, N-((4aS,7S,7aR,12bS)-4a,9-dihydroxy-3-methyl-2,3,4,4a,5,6,7,7a-octahydro-1H-4,12-methanobenzofuro[3,2-e]isoquinolin-7-yl)-2-((14-(3-((6-methylpyridin-2-yl)ethynyl)phenoxy)-2,7,11-trioxo-9-oxa-3,6,12-triazatetradecyl)oxy)acetamide]",34.31,80.85,nmol range,created tolerance; also recorded: exhibited tolerance,Tolerance,119.50,20.57,Tolerance,Tolerance (LPS pretreated mice [3]; i.c.v.): Tolerance
"COc1cccc(C#Cc2cccc(C)n2)c1 [Compound 2, 2-((3-methoxyphenyl)ethynyl)-6-methylpyridine, reference compound]",,,,,,,,,"% MPE (control mice [1]; i.c.v., 250 pmol/mouse): 14.59 ± 4.63% MPE; % MPE (control mice [1]; i.t., 250 pmol/mouse): 13.27 ± 3.39% MPE; % MPE (LPS pretreated mice [2]; i.t., 250 pmol/mouse): 21.96 ± 10.50% MPE"

# Source: patent US9981043B2, “Analgesic conjugates” (priority 2013, dated 2018)
